Here are results for 5 compounds from patent publication US7629383B2, “Double esters” (Drug Discovery Laboratory AS, priority 2001, dated 2009).

A short description of series [1]: Clinical testing of creams, indication skin cancer. Type of series: in vivo, human. The conditions noted are these: one person, skin cancer in the face. On the procedure:
A person with skin cancer in the face (one lesion above the nose) was treated with photodynamic therapy (5-ALA methyl ester, available from Photocure ASA, Oslo, Norway). The outcome of the treatment was very good. After about one year they observed a new lesion in the same area.

Series [2] has as its system Staphylococcus aureus. Put plainly: Antibacterial effect on agar gels. Type of series: cell-based. The conditions noted are these: same amount (10 mg). The method, then: The antibacterial effects of azelaic acid and the azelaic acid derivatives of Examples 7, 12 and 13 on Staphylococcus aureus were tested on agar gels.
The conditions of series [3]: cited from earlier work.

Read-outs that look alike come from different tables or passages of the source.

For the compound `COC(=O)CCC(=O)CN` [5-ALA methyl ester], in series [1], the “outcome of photodynamic therapy” value is given as “very good”.
Consider `CCOC(=O)OC(C)OC(=O)CCCCCCCC(=O)OC(C)OC(=O)OCC` (centres unmarked) [Example 7, bis-[1-[ethoxycarbonyloxy]-ethyl]nonanedioate], for which the “inhibiting zones on agar gel” value in series [2] is on record as “large inhibiting zones”.
In the case of `O=C(O)CCCCCCCC(=O)O` [azelaic acid, nonanedioic acid], the figures for the dose absorbed result in series [3] (administered orally) and in series [3] (administered topically) were “about 60%” and “about 3.6%”, respectively. Moreover, in series [3] (within 12 hours), the “absorbed azelaic acid excreted into the urine” value is given as 60%. The “inhibiting zones on agar gel” value in series [2] is given as “no inhibiting effect”.
Consider `CCCCCC(=O)OCOC(=O)CCCCCCCC(=O)OCOC(=O)CCCCC` [Example 13, bis-(hexanoyloxymethyl) nonanedioate], for which the “inhibiting zones on agar gel” value in series [2] is listed as “large inhibiting zones”.
Same read-out and setting: under `CCCC(=O)OCOC(=O)CCCCCCCC(=O)OCOC(=O)CCC` [Example 12, bis-(butanoyloxymethyl)nonanedioate] stands “large inhibiting zones”.
